The assay has as its target Melanin-concentrating hormone receptor 1 (Homo sapiens, UniProt Q99705). Nature of the assay: Radioligand Binding Assay (IC50) and Functional Assay (EC50/IC50). As to conditions: pH 7.4; 22 °C. The protocol: Compounds were evaluated for their binding affinity to the membranes of CHO-K1 cells expressing human MCH1R (hMCH1R) in a competition binding assay with [125I]-MCH as the radioligand. After incubation, the membranes were filtrated onto GF/C filter plates and dried. The radioactivity was counted using a microplate scintillation counter (TopCount, PerkinElmer). Non-specific binding was determined by including 1 uM unlabeled MCH in the binding reaction. Antagonistic activity (EC50/IC50) was estimated by the inhibitory effect of compounds on intracellular calcium mobilization induced by MCH using a FLIPR in CHO-K1 cells expressing human MCH1R. The cells were treated with the test compounds for 5 min before addition of MCH.

pIC50: −log10 of the molar value.

Sequence of Melanin-concentrating hormone receptor 1 (Q99705 as listed by the source): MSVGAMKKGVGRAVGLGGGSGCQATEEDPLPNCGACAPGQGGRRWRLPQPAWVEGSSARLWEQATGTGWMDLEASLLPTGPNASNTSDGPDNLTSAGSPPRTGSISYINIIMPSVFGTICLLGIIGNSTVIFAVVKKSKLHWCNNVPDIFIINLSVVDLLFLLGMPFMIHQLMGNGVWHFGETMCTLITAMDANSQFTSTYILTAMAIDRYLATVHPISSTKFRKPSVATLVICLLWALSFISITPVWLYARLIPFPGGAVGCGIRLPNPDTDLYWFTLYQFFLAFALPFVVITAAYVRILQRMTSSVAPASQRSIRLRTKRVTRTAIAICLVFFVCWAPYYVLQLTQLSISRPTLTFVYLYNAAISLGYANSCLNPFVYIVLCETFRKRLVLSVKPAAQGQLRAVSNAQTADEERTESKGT

The molecule `CC(C)N(C)c1nc2ccc(NC(=O)CCc3ccc(C(F)(F)F)cc3)cc2[nH]1` [2-aminobenzimidazole-based compound, 8] had a pIC50 of 7.68. With `CN(c1nc2ccc(NC(=O)CCc3ccc(C(F)(F)F)cc3)cc2[nH]1)C1CCCC1` [2-aminobenzimidazole-based compound, 12], the pIC50 was 7.66.

In turn, `CN(c1nc2ccc(NC(=O)CCc3ccc(C(F)(F)F)cc3)cc2[nH]1)C1CCCCC1` [2-aminobenzimidazole-based compound, 13] gave a pIC50 of 7.57. The pIC50 values of the last two molecules are within 0.2 log units of each other.

As a reminder, the pIC50 is the negative decadic logarithm of the IC50, by convention in mol/L.

Source of the values: BindingDB's records for doi:10.1016/j.bmcl.2009.04.147 (Banyu Pharmaceutical, 2009).
